Experiments:
Type in all cases: in vivo
Setaria viridis (SETVI) [1] = experiment: Herbicidal post-emergence action (D), 320 g/ha; conditions: ca. 3 weeks
How it was run: (§1)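 Scores are percent visual control, where 100% means plants died and 0% means no difference from untreated, taken roughly 3 weeks after a single foliar application at 600 l water/ha with 0.5% additive to single-leaf-stage greenhouse plants grown in sandy loam.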

[2] = tested on: Abutilon theophrasti (ABUTH); experiment: Herbicidal post-emergence action (D), 320 g/ha; conditions: ca. 3 weeks
How it was run: as §1

Viola tricolor (VIOTR) [3] = experiment: Herbicidal post-emergence action (D), 320 g/ha; conditions: ca. 3 weeks
How it was run: as §1

Avena fatua [4] = experiment: Herbicidal pre-emergence action (C), 320 g/ha; conditions: ca. 3 weeks
How it was run: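 Weed and crop seeds sown in sandy loam; WP or EC formulations applied pre-emergence to the soil surface as aqueous suspension/emulsion with 0.5% additive at 600 l water/ha. Greenhouse-grown under optimum conditions; damage visually scored after ca. 3 weeks versus untreated controls (0% = as control, 100% = plants dead).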

[5] = tested on: Matricaria inodora (MATIN); experiment: Herbicidal pre-emergence action (C), 320 g/ha; conditions: ca. 3 weeks
How it was run: (§2)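 Pre-emergence soil-surface spray: WP/EC formulation in water plus 0.5% additive, 600 l/ha, applied over freshly sown, soil-covered seeds in sandy loam. Greenhouse, optimum conditions, ~3 weeks. Visual % damage vs untreated (100% = dead).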

[6] = tested on: Abutilon theophrasti (ABUTH); experiment: Herbicidal pre-emergence action (C), 320 g/ha; conditions: ca. 3 weeks
How it was run: as §2

[7] = tested on: Polygonum convolvulus (POLCO); experiment: Herbicidal pre-emergence action (C), 320 g/ha; conditions: ca. 3 weeks
How it was run: as §2

Setaria viridis (SETVI) [8] = experiment: Herbicidal post-emergence action (B), 1280 g/ha; conditions: rated visually after about 3 weeks vs untreated controls
How it was run: (§3)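 Foliar post-emergence treatment of one-leaf-stage weeds with WP or EC preparations in water plus 0.5% additive, sprayed at 600 L/ha. Visual efficacy was assessed after roughly 3 weeks relative to untreated controls, 100% being complete kill.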

[9] = tested on: Digitaria sanguinalis (DIGSA); experiment: Herbicidal post-emergence action (B), 1280 g/ha; conditions: rated visually after about 3 weeks vs untreated controls
How it was run: as §3

Poa annua (POAAN) = experiment: Herbicidal post-emergence action (B), 1280 g/ha; conditions: rated visually after about 3 weeks vs untreated controls
How it was run: as §3

[10] = tested on: Alopecurus myosuroides (ALOMY); experiment: Herbicidal post-emergence action (B), 1280 g/ha; conditions: rated visually after about 3 weeks vs untreated controls
How it was run: as §3

[11] = tested on: Abutilon theophrasti (ABUTH); experiment: Herbicidal post-emergence action (B), 1280 g/ha; conditions: rated visually after about 3 weeks vs untreated controls
How it was run: as §3

Lolium rigidum (LOLRI) [12] = experiment: Herbicidal post-emergence action (B), 1280 g/ha; conditions: one-leaf stage, rated after about 3 weeks vs untreated controls, 100% activity = the plants have died, 0% = like control plants
How it was run: as §3

Veronica persica (VERPE) = experiment: Herbicidal post-emergence action (B), 1280 g/ha
How it was run: as §3

Stellaria media (STEME) [13] = experiment: Herbicidal post-emergence action (B), 1280 g/ha
How it was run: as §3

[14] = tested on: Amaranthus retroflexus (AMARE); experiment: Herbicidal post-emergence action (B), 1280 g/ha; conditions: rated visually after about 3 weeks vs untreated controls
How it was run: as §3

[15] = tested on: Kochia scoparia (KCHSC; Bassia scoparia); experiment: Herbicidal post-emergence action (B), 1280 g/ha
How it was run: as §3

[16] = tested on: Echinochloa crus-galli (ECHCG); experiment: Herbicidal post-emergence action (B), 1280 g/ha; conditions: rated visually after about 3 weeks vs untreated controls
How it was run: as §3

Lolium rigidum (LOLRI) [17] = experiment: Herbicidal post-emergence action (D), 320 g/ha; conditions: ca. 3 weeks
How it was run: as §1

Stellaria media (STEME) [18] = experiment: Herbicidal post-emergence action (D), 320 g/ha; conditions: ca. 3 weeks
How it was run: as §1

Viola tricolor (VIOTR) [19] = experiment: Herbicidal pre-emergence action (C), 320 g/ha; conditions: ca. 3 weeks
How it was run: as §2

Stellaria media (STEME) [20] = experiment: Herbicidal pre-emergence action (C), 320 g/ha; conditions: visual grading after ca. 3 weeks vs untreated controls, 100% = plants have died off, 0% = as control plants
How it was run: as §2

[21] = tested on: Matricaria inodora (MATIN); experiment: Herbicidal post-emergence action (B), 1280 g/ha; conditions: rated visually after about 3 weeks vs untreated controls
How it was run: as §3

[22] = tested on: Digitaria sanguinalis (DIGSA); experiment: Herbicidal post-emergence action (D), 320 g/ha; conditions: ca. 3 weeks
Avena fatua [23] = experiment: Herbicidal post-emergence action (D), 320 g/ha; conditions: ca. 3 weeks

## Fc1ccccc1-c1nc2ncsc2cc1Cl [Example I-017]
Setaria viridis (SETVI) [1]
  herbicidal effect SETVI: 80%
[2]
  herbicidal effect ABUTH: 80%
Viola tricolor (VIOTR) [3]
  herbicidal effect VIOTR: 90%
Avena fatua [4]
  herbicidal effect AVEFA: 90%
[5]
  herbicidal effect MATIN: 90%
[6]
  herbicidal effect ABUTH: 80%
[7]
  herbicidal effect POLCO: 90%
Setaria viridis (SETVI) [8]
  herbicidal activity SETVI: 100%
[9]
  herbicidal activity DIGSA: 100%
Poa annua (POAAN)
  herbicidal activity POAAN: 100%
[10]
  herbicidal activity ALOMY: 100%
[11]
  herbicidal activity ABUTH: 90%
Lolium rigidum (LOLRI) [12]
  LOLRI, activity rated visually (%): 100%
Veronica persica (VERPE)
  herbicidal effect VERPE: 90%
Stellaria media (STEME) [13]
  herbicidal effect STEME: 100%
[14]
  herbicidal activity AMARE: 90%
[15]
  herbicidal effect KCHSC: 90%
[16]
  herbicidal activity ECHCG: 100%

## Fc1ccccc1-c1ccc2scnc2n1 [Example I-036, 5-(2-fluorophenyl)thiazolo[4,5-b]pyridine]
Setaria viridis (SETVI) [1]
  herbicidal effect SETVI: 80%
Lolium rigidum (LOLRI) [17]
  herbicidal effect LOLRI: 80%
Stellaria media (STEME) [18]
  herbicidal effect STEME: 90%
Avena fatua [4]
  herbicidal effect AVEFA: 100%
[5]
  herbicidal effect MATIN: 100%
[6]
  herbicidal effect ABUTH: 90%
[7]
  herbicidal effect POLCO: 90%
Viola tricolor (VIOTR) [19]
  herbicidal effect VIOTR: 100%
Stellaria media (STEME) [20]
  STEME, herbicidal effect in percent (%): 90%
Setaria viridis (SETVI) [8]
  herbicidal activity SETVI: 100%
Poa annua (POAAN)
  herbicidal activity POAAN: 100%
[21]
  herbicidal activity MATIN: 100%
Lolium rigidum (LOLRI) [12]
  LOLRI, activity rated visually (%): 100%
Stellaria media (STEME) [13]
  herbicidal effect STEME: 100%
[14]
  herbicidal activity AMARE: 100%
[16]
  herbicidal activity ECHCG: 100%

## Cc1cc2scnc2nc1-c1ccccc1 [Example I-041]
Setaria viridis (SETVI) [1]
  herbicidal effect SETVI: 90%
[2]
  herbicidal effect ABUTH: 90%
Lolium rigidum (LOLRI) [17]
  herbicidal effect LOLRI: 80%
Avena fatua [4]
  herbicidal effect AVEFA: 90%
[5]
  herbicidal effect MATIN: 90%
[7]
  herbicidal effect POLCO: 90%
Setaria viridis (SETVI) [8]
  herbicidal activity SETVI: 100%
[9]
  herbicidal activity DIGSA: 100%
Poa annua (POAAN)
  herbicidal activity POAAN: 100%
[10]
  herbicidal activity ALOMY: 100%
[21]
  herbicidal activity MATIN: 100%
[11]
  herbicidal activity ABUTH: 100%
Lolium rigidum (LOLRI) [12]
  LOLRI, activity rated visually (%): 100%
Veronica persica (VERPE)
  herbicidal effect VERPE: 100%
Stellaria media (STEME) [13]
  herbicidal effect STEME: 100%
[14]
  herbicidal activity AMARE: 100%
[15]
  herbicidal effect KCHSC: 100%
[16]
  herbicidal activity ECHCG: 100%
[22]
  herbicidal effect DIGSA: 90%

## Cc1cc2scnc2nc1-c1ccccc1Cl [Example I-045]
Setaria viridis (SETVI) [1]
  herbicidal effect SETVI: 80%
[2]
  herbicidal effect ABUTH: 90%
Lolium rigidum (LOLRI) [17]
  herbicidal effect LOLRI: 80%
Avena fatua [4]
  herbicidal effect AVEFA: 90%
[6]
  herbicidal effect ABUTH: 80%
[7]
  herbicidal effect POLCO: 80%
Viola tricolor (VIOTR) [19]
  herbicidal effect VIOTR: 80%
Setaria viridis (SETVI) [8]
  herbicidal activity SETVI: 100%
Poa annua (POAAN)
  herbicidal activity POAAN: 100%
[10]
  herbicidal activity ALOMY: 100%
[11]
  herbicidal activity ABUTH: 90%
Lolium rigidum (LOLRI) [12]
  LOLRI, activity rated visually (%): 90%
Veronica persica (VERPE)
  herbicidal effect VERPE: 90%
Stellaria media (STEME) [13]
  herbicidal effect STEME: 100%
[14]
  herbicidal activity AMARE: 90%
[15]
  herbicidal effect KCHSC: 90%
[16]
  herbicidal activity ECHCG: 100%
[22]
  herbicidal effect DIGSA: 90%

## CCc1cc2scnc2nc1-c1ccccc1 [Example I-051]
Setaria viridis (SETVI) [1]
  herbicidal effect SETVI: 80%
Lolium rigidum (LOLRI) [17]
  herbicidal effect LOLRI: 80%
Avena fatua [4]
  herbicidal effect AVEFA: 90%
[5]
  herbicidal effect MATIN: 90%
[6]
  herbicidal effect ABUTH: 90%
[7]
  herbicidal effect POLCO: 80%
Viola tricolor (VIOTR) [19]
  herbicidal effect VIOTR: 100%
Setaria viridis (SETVI) [8]
  herbicidal activity SETVI: 100%
[9]
  herbicidal activity DIGSA: 100%
Poa annua (POAAN)
  herbicidal activity POAAN: 100%
[10]
  herbicidal activity ALOMY: 100%
[21]
  herbicidal activity MATIN: 100%
[11]
  herbicidal activity ABUTH: 90%
Lolium rigidum (LOLRI) [12]
  LOLRI, activity rated visually (%): 100%
Veronica persica (VERPE)
  herbicidal effect VERPE: 100%
Stellaria media (STEME) [13]
  herbicidal effect STEME: 100%
[14]
  herbicidal activity AMARE: 100%
[15]
  herbicidal effect KCHSC: 90%
[16]
  herbicidal activity ECHCG: 100%
[22]
  herbicidal effect DIGSA: 80%

## CCc1cc2scnc2nc1-c1ccccc1C [Example I-093]
Lolium rigidum (LOLRI) [17]
  herbicidal effect LOLRI: 80%
Avena fatua [4]
  herbicidal effect AVEFA: 80%
[5]
  herbicidal effect MATIN: 90%
Setaria viridis (SETVI) [8]
  herbicidal activity SETVI: 100%
[9]
  herbicidal activity DIGSA: 100%
Poa annua (POAAN)
  herbicidal activity POAAN: 100%
[10]
  herbicidal activity ALOMY: 100%
[21]
  herbicidal activity MATIN: 100%
[11]
  herbicidal activity ABUTH: 100%
Lolium rigidum (LOLRI) [12]
  LOLRI, activity rated visually (%): 100%
Veronica persica (VERPE)
  herbicidal effect VERPE: 100%
Stellaria media (STEME) [13]
  herbicidal effect STEME: 100%
[14]
  herbicidal activity AMARE: 100%
[15]
  herbicidal effect KCHSC: 100%
[16]
  herbicidal activity ECHCG: 100%

## Cc1cc2scnc2nc1-c1ccsc1C [Example I-194]
Setaria viridis (SETVI) [1]
  herbicidal effect SETVI: 80%
[5]
  herbicidal effect MATIN: 90%
[7]
  herbicidal effect POLCO: 90%
Viola tricolor (VIOTR) [19]
  herbicidal effect VIOTR: 90%
Poa annua (POAAN)
  herbicidal activity POAAN: 100%
[10]
  herbicidal activity ALOMY: 100%
[21]
  herbicidal activity MATIN: 100%
[11]
  herbicidal activity ABUTH: 90%
Lolium rigidum (LOLRI) [12]
  LOLRI, activity rated visually (%): 100%
Veronica persica (VERPE)
  herbicidal effect VERPE: 100%
Stellaria media (STEME) [13]
  herbicidal effect STEME: 100%
[14]
  herbicidal activity AMARE: 100%
[15]
  herbicidal effect KCHSC: 100%
[16]
  herbicidal activity ECHCG: 100%
Avena fatua [23]
  herbicidal effect AVEFA: 80%
